Results taken from the supplement of paper PMC10307832.

Columns and labels:
Experiment in all cases: relative viability (nuclei count vs DMSO), 5 days (fraction); higher = more cells survive
CX-5461 + Alpelisib = compound: Cc1cnc(CNC(=O)c2c(=O)c3ccc(N4CCCN(C)CC4)nc3n3c2sc2ccccc23)cn1 [CX-5461] + Cc1nc(NC(=O)N2CCC[C@H]2C(N)=O)sc1-c1ccnc(C(C)(C)C(F)(F)F)c1 [Alpelisib] (partner 2 µM)
Summary of the method: (§1)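 A single step with final 0.05% Triton X-100, 1% formaldehyde and 1 ug/ml Hoechst fixed the cells and stained nuclei 5 days after treatment. Lung cancer cell lines in 1536-well plates had been treated by pin tool the day after seeding with one drug alone or a fixed anchor-drug dose plus five library-drug doses (not always all listed) in √10 steps, and nuclei were counted on 4× images. Relative viability is the ratio of nuclei in treated wells to nuclei in vehicle wells, taken as the median of duplicate plates.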

CX-5461 + Dasatinib = compound: Cc1cnc(CNC(=O)c2c(=O)c3ccc(N4CCCN(C)CC4)nc3n3c2sc2ccccc23)cn1 [CX-5461] + Cc1nc(Nc2ncc(C(=O)Nc3c(C)cccc3Cl)s2)cc(N2CCN(CCO)CC2)n1 [Dasatinib] (partner 0.075 µM)
Summary of the method: as §1

IMD-0354 + Foretinib = compound: O=C(Nc1cc(C(F)(F)F)cc(C(F)(F)F)c1)c1cc(Cl)ccc1O [IMD-0354] + COc1cc2c(Oc3ccc(NC(=O)C4(C(=O)Nc5ccc(F)cc5)CC4)cc3F)ccnc2cc1OCCCN1CCOCC1 [Foretinib] (partner 0.25 µM)
Summary of the method: as §1

IMD-0354 + Crizotinib = compound: O=C(Nc1cc(C(F)(F)F)cc(C(F)(F)F)c1)c1cc(Cl)ccc1O [IMD-0354] + C[C@@H](Oc1cc(-c2cnn(C3CCNCC3)c2)cnc1N)c1c(Cl)ccc(F)c1Cl [Crizotinib] (partner 1 µM)
Summary of the method: as §1

Cell Line | relative viability (CX-5461 + Alpelisib; first compound 0.01 µM) | relative viability (CX-5461 + Alpelisib; first compound 0.03162 µM) | relative viability (CX-5461 + Alpelisib; first compound 0.1 µM) | relative viability (CX-5461 + Alpelisib; first compound 0.3162 µM) | relative viability (CX-5461 + Alpelisib; first compound 1 µM) | relative viability (CX-5461 + Dasatinib; first compound 0.01 µM) | relative viability (CX-5461 + Dasatinib; first compound 0.03162 µM) | relative viability (CX-5461 + Dasatinib; first compound 0.1 µM) | relative viability (CX-5461 + Dasatinib; first compound 0.3162 µM) | relative viability (CX-5461 + Dasatinib; first compound 1 µM) | relative viability (IMD-0354 + Foretinib; first compound 0.04 µM) | relative viability (IMD-0354 + Foretinib; first compound 0.1265 µM) | relative viability (IMD-0354 + Foretinib; first compound 0.4 µM) | relative viability (IMD-0354 + Foretinib; first compound 1.265 µM) | relative viability (IMD-0354 + Foretinib; first compound 4 µM) | relative viability (IMD-0354 + Crizotinib; first compound 0.04 µM) | relative viability (IMD-0354 + Crizotinib; first compound 0.1265 µM) | relative viability (IMD-0354 + Crizotinib; first compound 0.4 µM) | relative viability (IMD-0354 + Crizotinib; first compound 1.265 µM) | relative viability (IMD-0354 + Crizotinib; first compound 4 µM)
PC-14 | 0.947 | 1.23 | 1.05 | 0.933 | 0.883 | 0.312 | 0.251 | 0.295 | 0.272 | 0.0972 | 1.05 | 0.799 | 0.698 | 0.546 | 0.179 | 0.988 | 0.92 | 0.357 | 0.387 | 0.179
RERF-LC-KJ | 0.832 | 0.951 | 0.933 | 0.754 | 0.773 | 0.913 | 0.94 | 0.809 | 0.924 | 0.522 | 0.934 | 0.93 | 0.568 | 0.471 | 0.214 | 0.861 | 0.893 | 0.495 | 0.311 | 0.196
SK-LU-1 | 1.08 | 1.35 | 0.724 | 0.945 | 0.332 | 0.178 | 0.159 | 0.142 | – | 0.102 | 0.808 | 0.752 | 0.457 | 0.169 | 0.221 | 1.19 | 0.682 | 0.501 | 0.28 | 0.312
SK-MES-1 | 0.886 | 0.964 | 1.08 | 0.952 | 0.522 | 0.339 | 0.387 | 0.397 | 0.344 | 0.198 | 0.876 | 0.66 | 0.831 | 0.782 | 0.324 | 1.03 | 1.08 | 0.559 | 0.721 | 0.252
SW 1573 | 0.733 | 0.788 | 0.91 | 0.822 | 0.36 | 0.528 | 0.396 | 0.302 | 0.502 | 0.17 | 0.891 | 0.928 | 0.579 | 0.61 | 0.123 | 0.819 | 0.763 | 0.408 | 0.268 | 0.115
